{
  "source": "PubChem BioAssay (NCI)",
  "test_in_all_cases": "DTP human tumour cell line panel, 48 h",
  "key": {"786-0 renal": {"system": "786-0 renal"}, "A498 renal": {"system": "A498 renal"}, "A549 NSCLC": {"system": "A549 NSCLC"}, "ACHN renal": {"system": "ACHN renal"}, "BT-549 breast": {"system": "BT-549 breast"}, "CAKI-1 renal": {"system": "CAKI-1 renal"}, "CCRF-CEM leukemia": {"system": "CCRF-CEM leukemia"}, "COLO 205 colon": {"system": "COLO 205 colon"}, "DU-145 prostate": {"system": "DU-145 prostate"}, "EKVX NSCLC": {"system": "EKVX NSCLC"}, "HCC-2998 colon": {"system": "HCC-2998 colon"}, "HCT-116 colon": {"system": "HCT-116 colon"}, "HCT-15 colon": {"system": "HCT-15 colon"}, "HL-60(TB) leukemia": {"system": "HL-60(TB) leukemia"}, "HOP-62 NSCLC": {"system": "HOP-62 NSCLC"}, "HOP-92 NSCLC": {"system": "HOP-92 NSCLC"}, "HS 578T breast": {"system": "HS 578T breast"}, "HT29 colon": {"system": "HT29 colon"}, "IGROV1 ovarian": {"system": "IGROV1 ovarian"}, "K-562 leukemia": {"system": "K-562 leukemia"}, "KM12 colon": {"system": "KM12 colon"}, "LOX IMVI melanoma": {"system": "LOX IMVI melanoma"}, "M14 melanoma": {"system": "M14 melanoma"}, "MALME-3M melanoma": {"system": "MALME-3M melanoma"}, "MCF7 breast": {"system": "MCF7 breast"}, "MDA-MB-231 breast": {"system": "MDA-MB-231 breast"}, "MDA-MB-435": {"system": "MDA-MB-435"}, "MDA-N": {"system": "MDA-N"}, "MOLT-4 leukemia": {"system": "MOLT-4 leukemia"}, "NCI-H226 lung": {"system": "NCI-H226 lung"}, "NCI-H23 lung": {"system": "NCI-H23 lung"}, "NCI-H460 lung": {"system": "NCI-H460 lung"}, "NCI-H522 lung": {"system": "NCI-H522 lung"}, "NCI/ADR-RES ovarian": {"system": "NCI/ADR-RES ovarian"}, "OVCAR-3 ovarian": {"system": "OVCAR-3 ovarian"}, "OVCAR-4 ovarian": {"system": "OVCAR-4 ovarian"}, "OVCAR-5 ovarian": {"system": "OVCAR-5 ovarian"}, "OVCAR-8 ovarian": {"system": "OVCAR-8 ovarian"}, "PC-3 prostate": {"system": "PC-3 prostate"}, "RPMI-8226 leukemia": {"system": "RPMI-8226 leukemia"}, "RXF 393 renal": {"system": "RXF 393 renal"}, "SF-268 CNS": {"system": "SF-268 CNS"}, "SF-295 CNS": {"system": "SF-295 CNS"}, "SF-539 CNS": {"system": "SF-539 CNS"}, "SK-MEL-2 melanoma": {"system": "SK-MEL-2 melanoma"}, "SK-MEL-28 melanoma": {"system": "SK-MEL-28 melanoma"}, "SK-MEL-5 melanoma": {"system": "SK-MEL-5 melanoma"}, "SK-OV-3 ovarian": {"system": "SK-OV-3 ovarian"}, "SN12C renal": {"system": "SN12C renal"}, "SNB-19 CNS": {"system": "SNB-19 CNS"}, "SNB-75 CNS": {"system": "SNB-75 CNS"}, "SR leukemia": {"system": "SR leukemia"}, "SW-620 colon": {"system": "SW-620 colon"}, "T-47D breast": {"system": "T-47D breast"}, "TK-10 renal": {"system": "TK-10 renal"}, "U251 CNS": {"system": "U251 CNS"}, "UACC-257 melanoma": {"system": "UACC-257 melanoma"}, "UACC-62 melanoma": {"system": "UACC-62 melanoma"}, "UO-31 renal": {"system": "UO-31 renal"}},
  "note": "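Grown in 96-well plates, cells were treated for 48 hours with each compound at five concentrations. Insufficient inhibition: endpoint recorded as highest concentration tested. TGI denotes the concentration required for complete inhibition of growth.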",
  "data": [
    {"compound": "Nc1cccc(C2CCCc3c2[nH]c2ccccc32)c1", "note": "(centres undefined)", "values": [
      {"measurement": "TGI", "setting": "786-0 renal", "result": 41.5, "unit": "µM"},
      {"measurement": "TGI", "setting": "A498 renal", "result": 28.9, "unit": "µM"},
      {"measurement": "TGI", "setting": "A549 NSCLC", "result": 47.7, "unit": "µM"},
      {"measurement": "TGI", "setting": "ACHN renal", "result": 76.8, "unit": "µM"},
      {"measurement": "TGI", "setting": "BT-549 breast", "result": 41.9, "unit": "µM"},
      {"measurement": "TGI", "setting": "CAKI-1 renal", "result": 69.2, "unit": "µM"},
      {"measurement": "TGI", "setting": "CCRF-CEM leukemia", "result": 57, "unit": "µM"},
      {"measurement": "TGI", "setting": "COLO 205 colon", "result": 43.6, "unit": "µM"},
      {"measurement": "TGI", "setting": "DU-145 prostate", "result": "> 100", "unit": "µM"},
      {"measurement": "TGI", "setting": "EKVX NSCLC", "result": 67.5, "unit": "µM"},
      {"measurement": "TGI", "setting": "HCC-2998 colon", "result": 61, "unit": "µM"},
      {"measurement": "TGI", "setting": "HCT-116 colon", "result": 34, "unit": "µM"},
      {"measurement": "TGI", "setting": "HCT-15 colon", "result": 40.5, "unit": "µM"},
      {"measurement": "TGI", "setting": "HL-60(TB) leukemia", "result": 43, "unit": "µM"},
      {"measurement": "TGI", "setting": "HOP-62 NSCLC", "result": "> 100", "unit": "µM"},
      {"measurement": "TGI", "setting": "HOP-92 NSCLC", "result": 42.7, "unit": "µM"},
      {"measurement": "TGI", "setting": "HS 578T breast", "result": 43.7, "unit": "µM"},
      {"measurement": "TGI", "setting": "HT29 colon", "result": 33.4, "unit": "µM"},
      {"measurement": "TGI", "setting": "IGROV1 ovarian", "result": 39.8, "unit": "µM"},
      {"measurement": "TGI", "setting": "K-562 leukemia", "result": 48.7, "unit": "µM"},
      {"measurement": "TGI", "setting": "KM12 colon", "result": 49.8, "unit": "µM"},
      {"measurement": "TGI", "setting": "LOX IMVI melanoma", "result": 25.4, "unit": "µM"},
      {"measurement": "TGI", "setting": "M14 melanoma", "result": 62.4, "unit": "µM"},
      {"measurement": "TGI", "setting": "MALME-3M melanoma", "result": 48.3, "unit": "µM"},
      {"measurement": "TGI", "setting": "MCF7 breast", "result": 54.7, "unit": "µM"},
      {"measurement": "TGI", "setting": "MDA-MB-231 breast", "result": 37, "unit": "µM"},
      {"measurement": "TGI", "setting": "MDA-MB-435", "result": 41.1, "unit": "µM"},
      {"measurement": "TGI", "setting": "MDA-N", "result": 37.4, "unit": "µM"},
      {"measurement": "TGI", "setting": "MOLT-4 leukemia", "result": 54.1, "unit": "µM"},
      {"measurement": "TGI", "setting": "NCI-H226 lung", "result": 47.9, "unit": "µM"},
      {"measurement": "TGI", "setting": "NCI-H23 lung", "result": 46.4, "unit": "µM"},
      {"measurement": "TGI", "setting": "NCI-H460 lung", "result": 73.6, "unit": "µM"},
      {"measurement": "TGI", "setting": "NCI-H522 lung", "result": 34.1, "unit": "µM"},
      {"measurement": "TGI", "setting": "NCI/ADR-RES ovarian", "result": 38.8, "unit": "µM"},
      {"measurement": "TGI", "setting": "OVCAR-3 ovarian", "result": "> 100", "unit": "µM"},
      {"measurement": "TGI", "setting": "OVCAR-4 ovarian", "result": "> 100", "unit": "µM"},
      {"measurement": "TGI", "setting": "OVCAR-5 ovarian", "result": 45.8, "unit": "µM"},
      {"measurement": "TGI", "setting": "OVCAR-8 ovarian", "result": 34.8, "unit": "µM"},
      {"measurement": "TGI", "setting": "PC-3 prostate", "result": 53.9, "unit": "µM"},
      {"measurement": "TGI", "setting": "RPMI-8226 leukemia", "result": 56.6, "unit": "µM"},
      {"measurement": "TGI", "setting": "RXF 393 renal", "result": 39.3, "unit": "µM"},
      {"measurement": "TGI", "setting": "SF-268 CNS", "result": 56.4, "unit": "µM"},
      {"measurement": "TGI", "setting": "SF-295 CNS", "result": 64.5, "unit": "µM"},
      {"measurement": "TGI", "setting": "SF-539 CNS", "result": 40.6, "unit": "µM"},
      {"measurement": "TGI", "setting": "SK-MEL-2 melanoma", "result": 37.8, "unit": "µM"},
      {"measurement": "TGI", "setting": "SK-MEL-28 melanoma", "result": "> 100", "unit": "µM"},
      {"measurement": "TGI", "setting": "SK-MEL-5 melanoma", "result": 33.1, "unit": "µM"},
      {"measurement": "TGI", "setting": "SK-OV-3 ovarian", "result": 70.4, "unit": "µM"},
      {"measurement": "TGI", "setting": "SN12C renal", "result": 32.7, "unit": "µM"},
      {"measurement": "TGI", "setting": "SNB-19 CNS", "result": 72.7, "unit": "µM"},
      {"measurement": "TGI", "setting": "SNB-75 CNS", "result": 36.1, "unit": "µM"},
      {"measurement": "TGI", "setting": "SR leukemia", "result": 31.4, "unit": "µM"},
      {"measurement": "TGI", "setting": "SW-620 colon", "result": 42.6, "unit": "µM"},
      {"measurement": "TGI", "setting": "T-47D breast", "result": 54.7, "unit": "µM"},
      {"measurement": "TGI", "setting": "TK-10 renal", "result": "> 100", "unit": "µM"},
      {"measurement": "TGI", "setting": "U251 CNS", "result": 28.9, "unit": "µM"},
      {"measurement": "TGI", "setting": "UACC-257 melanoma", "result": 69.1, "unit": "µM"},
      {"measurement": "TGI", "setting": "UACC-62 melanoma", "result": 31.1, "unit": "µM"},
      {"measurement": "TGI", "setting": "UO-31 renal", "result": "> 100", "unit": "µM"}
    ]}
  ]
}
